The nature of series [1]: Example 1: single dose, randomized, two-period, cross-over pharmacokinetic study, oral solution vs i.v. infusion. In kind it is in vivo, human. The settings on record: for Edaravone plasma concentration: time Pre. How it is done: A single dose, randomized, two-period, cross-over study was conducted in 18 healthy male and female human subjects.
Another series has as its system APP/PS1 mice. The settings on record: cited from earlier work.
Series [2] can be described thus: Example 2: repeat of the Example 1 study, with edaravone metabolites in plasma. The settings on record: for Edaravone plasma concentration: time Pre; for AUC(0-inf): extrapolated to infinity; for Ratio conjugate-to-parent drug (AUClast): ratio calculated using AUClast (h · μMol/L). The class given is in vivo, human. The source says:
The study described in Example 1 was repeated, again using 18 healthy male and female human subjects.

For series [3] the following is noted: rats, oral, dose of 27 mg/kg, suspended with 0.5% CMC-Na, compared to 100% for intravenous; cited from earlier work.
Series [4] in a line: Dissolution rate of edaravone in water. The class given is physicochemical. To be noted: in the presence of an alkalizing agent, especially at at least 0.3 grams edaravone per liter. The source says:
The oxides and hydroxides of alkaline metals are preferably selected from NaOH, KOH, LiOH and combinations thereof. The oxides and hydroxides of alkali-earth metals are preferably selected from Ca(OH)2, CaO, Mg(OH)2, MgO and combinations thereof. The salts of weak organic and weak inorganic acids are preferably selected from carbonate, bicarbonate, borate, carboxylate (e.g. lactate, citrate, acetate, formate and oxalate), phosphate, sulfate and combinations thereof. The alkaline amines are preferably selected from tris(hydroxymethyl)aminomethane, ethanolamine, diethanolamine, triethanolamine, N-methyl-glucamine, glucosamine, ethylenediamine, diethylamine, triethylamine, isopropylamine, diisopropylamine, ammonia and combinations thereof. The alkaline amino acids are preferably selected from arginine, histidine, lysine and combinations thereof.

For series [5] the following is noted: SD rats, in comparison to intravenous administration; cited from earlier work.
The conditions of series [6]: male Wistar rats, cited from earlier work.
For series [7] the following is noted: APP/PS1 Mice, oral 33.2 mg/kg/d; cited from earlier work.
The mark [8] stands for this setting: both sexes, human, plasma, iv, Example 2, i.v. infusion 60 mg.
The mark [9] stands for this setting: both sexes, human, plasma, iv, Example 2, i.v. infusion (60 mg).
The mark [10] stands for this setting: both sexes, human, plasma, Example 2, oral administration 140 mg.
Setting [11] is: both sexes, human, plasma, Example 2, oral administration (140 mg).
[12] abbreviates: i.v. infusion of edaravone 60 mg (n = 18).
Where [13] appears, read: oral administration of edaravone 140 mg (n = 18).

Like-named read-outs stand apart in the source and are kept apart here.

`CC1=NN(c2ccccc2)C(=O)C1` [Edaravone, 3-methyl-1-phenyl-2-pyrazolin-5-one] yielded an Edaravone plasma concentration in series [1] (Example 1, i.v. infusion (60 mg, 60 minutes)) of 0 ng/mL. This compound also returned an Edaravone plasma concentration in series [1] (Example 1, oral administration (140 mg)) of 0 ng/mL. Besides, the “systemic bioavailability (Fabs)” value in series [1] (Example 1, oral compared to i.v. infusion) was 79%. For the same compound, the “time at which peak maximum concentrations are reached after administration” value in series [1] (Example 1, orally administered) is recorded as “about 15 min”. The “cognitive deficits (escaping latency in platform testing, annulus crossing in probing test)” value with APP/PS1 mice is “prominently attenuated”. For the same compound, in the series with APP/PS1 mice (oral intake), the “Aβ levels in the brain” value is listed as “significantly reduced”; the “Aβ plaque burden in the hippocampus and neocortex” value is listed as “markedly alleviated”. For the same compound, the Edaravone plasma concentration in series [2] (Example 2, i.v. infusion (60 mg)) worked out at 0 ng/mL. Further, in series [2] (Example 2, oral administration (140 mg)), the Edaravone plasma concentration stood at 0 ng/mL. In addition, the “contribution of gastrointestinal metabolism to the overall plasma metabolism profile” value in series [2] (Example 2, oral in comparison to intravenous administration) is reported as “No indication for a relevant contribution of gastrointestinal metabolism”. Besides, the “time at which peak maximum concentrations are reached after administration” value in series [2] (Example 2, orally administered) is “about 14 min”. In addition, the bioavailability in series [2] (both sexes, human, plasma, 140 mg, Example 2, oral compared to i.v. infusion, read-out: systemic bioavailability (Fabs)) is 93%. For the same compound, in series [2] (setting [8]), the AUC(0-t) is 1220 ng·h/mL, the Cmax was 943 ng/mL and the AUC(0-inf) was 1210 ng·h/mL. For the same compound, in series [2] (setting [9]), the concentration at 0.17 h amounted to 373 ng/mL, the concentration at 0.5 hrs is 696 ng/mL, the concentration at 1 hrs amounted to 943 ng/mL and the concentration at 1.5 hrs was 298 ng/mL. Also, in series [2] (setting [9]), the concentration at 4 h is 36 ng/mL, the concentration at 6 h is 13 ng/mL, the concentration at 8 h is 7 ng/mL and the concentration at 10 h was determined as 5 ng/mL. Also, in series [2] (setting [10]), the area under the curve AUC(0-t) is 2560 ng·h/mL, the Cmax was found to be 3530 ng/mL, the time of peak concentration (Tmax) came out at 13.8 min and the total exposure AUC(0-inf) is 2570 ng·h/mL. Moreover, the concentration at 0.083 h in series [2] (both sexes, human, plasma, Example 2, oral administration (140 mg), 0.083 hrs) was found to be 1530 ng/mL. Also, in series [2] (setting [11]), the concentration at 0.17 h was 2760 ng/mL, the concentration at 0.5 hrs is 2000 ng/mL, the concentration at 1 hrs came to 762 ng/mL and the concentration at 1.5 hrs stood at 388 ng/mL. Moreover, in series [2] (setting [11]), the concentration at 4 h was 63 ng/mL, the concentration at 6 h was 24 ng/mL, the concentration at 8 h is 13 ng/mL and the concentration at 10 h was determined as 8 ng/mL. Besides, in series [2] (both sexes, human, plasma, Example 2, oral administration (140 mg), 0.25 hrs), the concentration at […] worked out at 3060 ng/mL. The concentration at 2 hrs in series [2] (both sexes, human, plasma, Example 2, oral administration (140 mg), 2 hrs) came to 228 ng/mL. Further, in series [3], the “absolute bioavailability (Fabs)” value is reported as 5.23%. In series [4], the “rate at which edaravone dissolves in water” value is “increased substantially”. Also, in series [5], the oral bioavailability is around 5.8%. The plasma concentration in series [6] (orally administered at 10 mg/kg) is 243 ng/mL. Besides, the plasma concentration in series [6] (orally administered at 30 mg/kg) is 1314 ng/mL. Besides, the plasma concentration in series [6] (orally administered at 100 mg/kg) is reported as 10999 ng/mL. Further, the “bioavailability of oral edaravone, of the i.v. delivery” value in series [7] is 38%.

With `Cc1cc(O[C@@H]2O[C@H](C(=O)O)[C@@H](O)[C@H](O)[C@H]2O)n(-c2ccccc2)n1` [Glucuronide conjugate], the results for the “Ratio conjugate-to-parent drug (AUClast)” value in series [2] (setting [12]) and in series [2] (setting [13]) were 1.4 ± 1.0 and 1.8 ± 0.8, respectively.

Turning to `Cc1cc(OS(=O)(=O)O)n(-c2ccccc2)n1` [Sulfate conjugate], the “Ratio conjugate-to-parent drug (AUClast)” value in series [2] (setting [12]) is 9.9 ± 2.7; in series [2] (setting [13]), 9.5 ± 2.8.

Usually bioavailability stands for the share of a dose that reaches the circulation, judged against a reference dose that is usually intravenous. The AUC(0-t) is the area under the concentration-time curve up to a stated or last time point. As a reminder, the Cmax is the highest concentration seen after dosing. Broadly, the AUC(0-inf) is total exposure, with the tail of the curve extrapolated. Usually Tmax stands for the time from dosing to the highest level.

Source of the values: patent US12370139B2 (TREEWAY TW001 B.V., priority 2017, dated 2025).
